Laboratory results taken from patent US11667636B2, “Modulators of Mas-related G-protein receptor X2 and related products and methods” (Escient Pharmaceuticals, Inc., priority 2020, dated 2023).

target: T1, human MRGPRX2 (Homo sapiens, UniProt Q96LB1); assay: MRGPRX2 Activity: IP-One HTRF antagonist assay in CHO cells stably expressing human MRGPRX2, versus Cortistatin-14; format: cell-based; conditions: versus 0.3 uM Cortistatin-14 agonist, IP-1 HTRF, read-out: MRGPR2 Antagonist Activity
T1 construct: expressed in transfected cells
T1 sequence (Q96LB1 1-330): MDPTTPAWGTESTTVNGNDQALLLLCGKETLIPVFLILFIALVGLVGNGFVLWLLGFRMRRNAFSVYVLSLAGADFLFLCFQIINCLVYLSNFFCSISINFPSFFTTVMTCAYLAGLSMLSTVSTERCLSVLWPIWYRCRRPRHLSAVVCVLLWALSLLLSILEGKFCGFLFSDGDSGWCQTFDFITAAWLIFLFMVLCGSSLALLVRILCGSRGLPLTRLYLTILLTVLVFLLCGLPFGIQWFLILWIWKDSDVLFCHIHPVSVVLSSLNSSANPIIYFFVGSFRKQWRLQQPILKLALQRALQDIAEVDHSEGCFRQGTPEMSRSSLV
Procedure: CHO cells stably transfected to express human MRGPRX2 were maintained in an incubator at 37° C. with 5% CO2 and grown in F12 (HAM) media with 10% fetal bovine serum (FBS), 1% Glutamax, 1% penicillin/streptomycin, 800 μg/mL Geneticin (G418), and 300 μg/mL Hygromycin B. Cells were plated in a 384-well assay plate at 20,000 cells per well in 12 μL of Opti-MEM and kept in an incubator overnight. On the day of the assay, compounds solubilized at 10 mM in DMSO were added as a 10-point curve (30 uM final top concentration with 1:3 serial dilutions) using a Tecan D300E digital dispenser. Agonists were diluted in assay buffer (final concentrations of 5.7 mM Tris-HCl, 43 mM NaCl, 50 mM LiCl, pH=8) and 2 μL of the agonist Cortistatin-14 (CPC Scientific, catalog CORT-002) are added to each well. Final concentrations of agonists were 0.3 μM Cortistatin-14. Final concentrations of DMSO were kept consistent across the plate. Plates were incubated in the dark for 1 hr at 37° C. and then for 1 hr at room temperature. IP-1 standards and HTRF detection reagents were added according to the IP-One-Gq Kit purchased from Cisbio (part number 62IPAPEJ) and incubated in the dark for 1 hr at room temperature. The plate was read on a Molecular Devices SpectraMax iD5 plate reader. The HTRF ratio was calculated from the raw data and graphed using GraphPad Prism to calculate an IC50 value for each compound.
The activity ranges are denoted as follows: “+++++” denotes antagonist activity <50 nM; “++++” denotes antagonist activity between 51 and 100 nM; “+++” denotes activity between 101 and 500 nM; “++” denotes activity between 501 and 1000 nM; and “+” denotes activity >1000 nM

COc1cccc(C(=O)N[C@H]2CC[C@@H](Nc3cccc4nc(C#N)cn34)CC2)c1 [2-260] and CNc1ccc(C(=O)N[C@H]2CC[C@@H](Nc3cccc4nc(C#N)cn34)CC2)cc1 [2-259] fall in the same range of IC50: 101 to 500 nM for the first, 101 to 500 nM for the second.

Compared with CCn1nccc1C(=O)N[C@H]1CC[C@@H](Nc2cccc3sc(C(F)(F)F)cc23)CC1 [2-3], O=C(N[C@H]1CC[C@@H](Nc2cccc3sc(C(F)(F)F)cc23)CC1)c1cc2ccccn2n1 [2-1] is lower in IC50: 101 to 500 nM for the first, 51 to 100 nM for the second.

First: COc1ccc(C(=O)N[C@H]2CC[C@@H](Nc3cccc4nc(C(F)F)cn34)CC2)c(Cl)c1 [2-148]
Second: O=C(N[C@H]1CC[C@@H](Nc2cccc3nc(C(F)F)cn23)CC1)c1ccc(Cl)cc1Cl [2-275]
The IC50 of the first is lower: 51 to 100 nM for the first, 101 to 500 nM for the second.

O=C(N[C@H]1CC[C@@H](Nc2cccc3nc(C(F)F)cn23)CC1)c1cncs1 [2-147] and O=C(N[C@H]1CC[C@@H](Nc2cccc3nc(C(F)F)cn23)CC1)c1ccc(F)nc1 [2-254] fall in the same range of IC50: 101 to 500 nM for the first, 101 to 500 nM for the second.

O=C(N[C@H]1CC[C@@H](Nc2cccc3nc(C(F)(F)F)cn23)CC1)c1ccc(NCC(F)(F)F)cc1 [2-23] and O=C(N[C@H]1CC[C@@H](Nc2cccc3nc(C(F)(F)F)cn23)CC1)c1ccc(F)cc1 [2-157] cannot be ordered by IC50: < 50 nM for the first, < 50 nM for the second.

First: CN(CC(F)F)c1cccc(C(=O)N[C@H]2CC[C@@H](Nc3cccc4nc(C(F)(F)F)cn34)CC2)c1 [2-14]
Second: CN(CC(F)F)c1ccc(C(=O)N[C@H]2CC[C@@H](Nc3cccc4nc(C(F)(F)F)cn34)CC2)cc1 [2-181]
The IC50 of the first is higher: 51 to 100 nM for the first, < 50 nM for the second.

First: Cn1cc(C(=O)N[C@H]2CC[C@@H](Nc3cccc4nc(C(F)(F)F)cn34)CC2)c(N)n1 [2-246]
Second: Cn1cc(C(=O)N[C@H]2CC[C@@H](Nc3cccc4nc(C(F)(F)F)cn34)CC2)c(C2CC2)n1 [2-191]
The IC50 of the first is lower: < 50 nM for the first, 51 to 100 nM for the second. The first is the more potent here.

First: O=C(N[C@H]1CC[C@@H](Nc2cccc3nc(C(F)F)cn23)CC1)c1nn2ccccc2c1NCC(F)F [2-269]
Second: O=C(N[C@H]1CC[C@@H](Nc2cccc3nc(C(F)F)cn23)CC1)c1ccnc(NCC(F)F)c1 [2-150]
The IC50 of the first is higher: 101 to 500 nM for the first, < 50 nM for the second. The second is the more potent here.

Compared with CC(=O)Nc1cccc(C(=O)N[C@H]2CC[C@@H](Nc3cccc4sc(C(F)(F)F)cc34)CC2)c1 [2-2], N#Cc1cccc(C(=O)N[C@H]2CC[C@@H](Nc3cccc4sc(C(F)(F)F)cc34)CC2)c1 [Example 5, 3-cyano-N-((1 S,4S)-4-((2-(trifluoromethyl)benzo[b]thiophen-4-yl)amino)cyclohexyl)benzamide] is lower in IC50: > 1000 nM for the first, 101 to 500 nM for the second. The second is the more potent here.

O=C(N[C@H]1CC[C@@H](Nc2cccc3nc(C(F)(F)F)cn23)CC1)c1cn(CC(F)(F)F)nc1C(F)F [Example 9, 3-(difluoromethyl)-1-(2,2,2-trifluoroethyl)-N-[4-[[2-(trifluoromethyl)imidazo[1,2-a]pyridin-5-yl]amino]cyclohexyl]pyrazole-4-carboxamide] and Nc1nn(CC(F)(F)F)cc1C(=O)N[C@H]1CC[C@@H](Nc2cccc3nc(C(F)(F)F)cn23)CC1 [Example 7, 3-amino-1-(2,2,2-trifluoroethyl)-N-[4-[[2-(trifluoromethyl)imidazo[1,2-a]pyridin-5-yl]amino]cyclohexyl]pyrazole-4-carboxamide] cannot be ordered by IC50: < 50 nM for the first, < 50 nM for the second.

O=C(N[C@H]1CC[C@@H](Nc2cccc3nc(C(F)(F)F)cn23)CC1)c1cn(CC(F)F)nc1C(F)F [Example 8, 1-(2,2-difluoroethyl)-3-(difluoromethyl)-N-[4-[[2-(trifluoromethyl)imidazo[1,2-a]pyridin-5-yl]amino]cyclohexyl]pyrazole-4-carboxamide] and O=C(N[C@H]1CC[C@@H](Nc2cccc3nc(C(F)(F)F)cn23)CC1)c1cn(CC(F)(F)F)nc1Cl [Example 12, 3-chloro-1-(2,2,2-trifluoroethyl)-N-((1s,4s)-4-((2-(trifluoromethyl)imidazo[1,2-a]pyridin-5-yl)amino)cyclohexyl)-1H-pyrazole-4-carboxamide] cannot be ordered by IC50: < 50 nM for the first, < 50 nM for the second.

Cn1cc(C(=O)NC2CCC(Nc3cccc4nc(C(F)(F)F)cn34)CC2)c2ccccc21 (stereo not shown) [2-289] and Cn1cc(C(=O)N[C@H]2CC[C@@H](Nc3cccc4nc(C(F)(F)F)cn34)CC2)c2c(Cl)cccc21 [2-291] cannot be ordered by IC50: < 50 nM for the first, < 50 nM for the second.

O=C(N[C@H]1CC[C@@H](Nc2cccc3nc(C(F)(F)F)cn23)CC1)c1c[nH]c2ccccc12 [2-201] and O=C(N[C@H]1CC[C@@H](Nc2cccc3nc(C(F)(F)F)cn23)CC1)c1ccccc1NCC(F)F [2-188] cannot be ordered by IC50: < 50 nM for the first, < 50 nM for the second.

Compared with Cc1n[nH]c2c(C(=O)N[C@H]3CC[C@@H](Nc4cccc5nc(C(F)(F)F)cn45)CC3)ccnc12 [2-247], O=C(N[C@H]1CC[C@@H](Nc2cccc3nc(C(F)(F)F)cn23)CC1)c1ccnc2cn[nH]c12 [2-126] is lower in IC50: 101 to 500 nM for the first, < 50 nM for the second. The second is the more potent here.

CN(CC(F)F)c1ccc(C(=O)N[C@H]2CC[C@@H](Nc3cccc4nc(C(F)F)cn34)CC2)cc1 [2-274] and Cc1cc(C(=O)N[C@H]2CC[C@@H](Nc3cccc4nc(C(F)F)cn34)CC2)cn1C(F)F [2-221] cannot be ordered by IC50: < 50 nM for the first, < 50 nM for the second.

CC(C#N)c1cccc(C(=O)N[C@H]2CC[C@@H](Nc3cccc4sc(C(F)(F)F)cc34)CC2)c1 (stereo partly shown) [2-5] and COc1ccc(C(=O)N[C@@H]2CCC[C@H](Nc3cccc4sc(C(F)(F)F)cc34)C2)cc1 [Example 2, 4-methoxy-N-((1R,3S)-3-((2-(trifluoromethyl)benzo[b]thiophen-4-yl)amino)cyclohexyl)benzamide] fall in the same range of IC50: 101 to 500 nM for the first, 101 to 500 nM for the second.

Compared with O=C(N[C@H]1CC[C@@H](Nc2cccc3nc(C(F)F)cn23)CC1)c1ccnc2cn[nH]c12 [2-253], O=C(N[C@H]1CC[C@@H](Nc2cccc3nc(C(F)F)cn23)CC1)c1cn(C(F)(F)F)nc1Cl [2-295] is higher in IC50: < 50 nM for the first, 51 to 100 nM for the second. The first is the more potent here.

First: CC(=O)c1cc2c(N[C@H]3CC[C@@H](NC(=O)c4ccc(F)cc4)CC3)cccc2s1 [1-5]
Second: O=C(N[C@H]1CC[C@@H](Nc2cccc3nc(C(F)(F)F)sc23)CC1)c1ccc(F)cc1 [1-19]
The IC50 of the first is higher: 101 to 500 nM for the first, 51 to 100 nM for the second. The second is the more potent here.

First: Cc1cc2c(C(=O)N[C@H]3CC[C@@H](Nc4cccc5nc(C(F)(F)F)cn45)CC3)cccc2n1C [2-198]
Second: Cc1c(C(=O)N[C@H]2CC[C@@H](Nc3cccc4nc(C(F)(F)F)cn34)CC2)c2ccccc2n1C [2-227]
The IC50 of the first is lower: < 50 nM for the first, 101 to 500 nM for the second. The first is the more potent here.

First: O=C(N[C@H]1CC[C@@H](Nc2cccc3nc(C(F)F)cn23)CC1)c1cn(C(F)F)nc1C(F)F [2-220]
Second: Cn1cc(C(=O)N[C@H]2CC[C@@H](Nc3cccc4nc(C(F)F)cn34)CC2)c(C(F)F)n1 [2-286]
The IC50 of the first is lower: < 50 nM for the first, 101 to 500 nM for the second.

First: CC(C)(O)Cn1cc(C(=O)N[C@H]2CC[C@@H](Nc3cccc4nc(C(F)F)cn34)CC2)c(Cl)n1 [2-283]
Second: Cn1cc(C(=O)N[C@H]2CC[C@@H](Nc3cccc4nc(C(F)F)cn34)CC2)c(NCC(F)F)n1 [2-288]
The IC50 of the first is higher: 101 to 500 nM for the first, < 50 nM for the second. The second is the more potent here.

O=C(N[C@H]1CC[C@@H](Nc2cccc3nc(C(F)(F)F)cn23)CC1)c1cncc2cn[nH]c12 [2-241] and O=C(N[C@H]1CC[C@@H](Nc2cccc3nc(C(F)(F)F)cn23)CC1)c1ccncc1 [2-162] fall in the same range of IC50: 101 to 500 nM for the first, 101 to 500 nM for the second.

First: O=C(N[C@H]1CC[C@@H](Nc2cccc3nc(C(F)(F)F)cn23)CC1)c1c[nH]nc1C1CC1 [2-141]
Second: Cn1cc(C(=O)N[C@H]2CC[C@@H](Nc3cccc4nc(C(F)(F)F)cn34)CC2)nn1 [2-233]
The IC50 of the first is lower: < 50 nM for the first, 101 to 500 nM for the second. The first is the more potent here.

CN(C)c1ccc(C(=O)N[C@H]2CC[C@@H](Nc3cccc4nc(C(F)(F)F)cn34)CC2)cc1 [2-158] and O=C(N[C@H]1CC[C@@H](Nc2cccc3nc(C(F)(F)F)cn23)CC1)c1ccc2nccn2c1 [2-165] cannot be ordered by IC50: < 50 nM for the first, < 50 nM for the second.

First: CCOCc1cc2c(N[C@H]3CCC[C@@H](NC(=O)c4ccc(OC)cc4)C3)cccc2s1 [1-3]
Second: Cc1nc2cccc(C(=O)N[C@H]3CC[C@@H](Nc4cccc5nc(C(F)(F)F)cn45)CC3)c2s1 [2-169]
The IC50 of the first is higher: > 1000 nM for the first, < 50 nM for the second. The second is the more potent here.

O=C(N[C@H]1CC[C@@H](Nc2cccc3nc(C(F)(F)F)cn23)CC1)c1cc2cc(F)cnc2[nH]1 [2-120] and N#Cc1nn(C(F)F)cc1C(=O)N[C@H]1CC[C@@H](Nc2cccc3nc(C(F)(F)F)cn23)CC1 [2-229] cannot be ordered by IC50: < 50 nM for the first, < 50 nM for the second.
